According to patent publication US7019135B2, “Anti-viral pyrimidine nucleoside analogues” (University College Cardiff Consultants Limited, priority 2000, dated 2006):
pEC50: −log10 of the molar value. “Also recorded” adds a separate entry of the source.

How the values were obtained:
HSV-1 = details: in vitro; Can. J. Chem. 74, 1609, 1996; cited from earlier work
HSV-2 = details: in vitro; Can. J. Chem. 74, 1609, 1996; cited from earlier work
VZV = details: in vitro; Can. J. Chem. 74, 1609, 1996; cited from earlier work
CMV [1] = details: in vitro; Can. J. Chem. 74, 1609, 1996; cited from earlier work
[2] = test system: Varicella zoster virus (VZV); details: said in WO 98/49177; cited from earlier work
CMV [3] = details: said in WO 98/49177; cited from earlier work
CMV strain AD169 = CMV strain AD169 induced cytopathicity in HEL cells; assay type: cell-based, cytomegalo virus; details: Human betaherpesvirus 5, AD169, 168 h, 50% reduction of virus induced cytopathicity, 7 days post infection
Experimental: (§1) Each of the products of Examples 1 to 9 was tested in vitro in tissue cultures for toxicity and for potent antiviral actions with respect to cytomegalo virus (CMV). EC50/μM CMV-AD169 is the drug concentration in μM required to reduce by 50% CMV strain AD169 induced cytopathicity in human embryonic lung fibroblast (HEL) cells measured 7 days post infection compared to untreated control. Further details of the methodology employed can be found in McGuigan et al. J. Med. Chem., 1999, 42, 4479-4484.

CMV strain Davis = CMV strain Davis induced cytopathicity in HEL cells; assay type: cell-based, cytomegalo virus; details: Human betaherpesvirus 5, 168 h, 50% reduction of virus induced cytopathicity, 7 days post infection
Experimental: as §1, with “CMV Davis” for “CMV-AD169”, “Davis” for “AD169”

[4] = test system: human embryonic lung cells; experiment: minimum cytotoxic concentration to human embryonic lung cells; assay type: cell-based; details: for MCC/μM: minimum cytotoxic concentration, human embryonic lung cells; for toxicity (in words): summary of the table data
Experimental: (§2) Each of the products of Examples 1 to 9 was tested in vitro in tissue cultures for toxicity and for potent antiviral actions with respect to cytomegalo virus (CMV). MCC/μM is the minimum cytotoxic concentration to human embryonic lung cells. Further details of the methodology employed can be found in McGuigan et al. J. Med. Chem., 1999, 42, 4479-4484.

[5] = concentration required to reduce the cell number by 50%; assay type: cell-based; details: human, human embryonic lung cells; concentration reducing the cell number by 50%
Experimental: as §2, with “CC50/μM” for “MCC/μM”, “compound” for “minimum cytotoxic”, “concentration required” for “concentration”, “reduce the cell number by 50%.” for “human embryonic lung cells.”

cytomegalo virus (CMV) = experiment: anti-CMV activity in tissue culture, summary in words of the table; assay type: cell-based; details: for anti-CMV activity (in words): summary of the table data, comparison with Ganciclovir
Experimental: as §1, with “EC50/μM CMV Davis is” for “Further details of”, “drug concentration” for “methodology employed can be found”, “μM required to reduce by 50% CMV strain Davis induced cytopathicity in human embryonic lung fibroblast (HEL) cells measured 7 days post infection compared to untreated control.” for “McGuigan et al. J. Med. Chem., 1999, 42, 4479-4484.”

VZV OKA strain = VZV OKA strain induced cytopathicity in HEL cells; assay type: cell-based, Varicella zoster virus; details: Human alphaherpesvirus 3, HEL, 168 h, read-out: EC50 VZV OKA strain
Experimental: (§3) The compound of Example 3 wherein R is -nC10H21 was tested to assess its potency against VZV. Employing the equivalent EC50 assay as set out above, namely a measurement of the drug concentration required to reduce by 50% the VZV induced cytopathicity in human embryonic fibroblast (HEL) measured 7 days post infection, a concentration of 40 μM was found with respect to VZV OKA strain and a concentration of 20 μM was measured with respect to VZV YS strain.

VZV YS strain = VZV YS strain induced cytopathicity in HEL cells; assay type: cell-based, Varicella zoster virus; details: Human alphaherpesvirus 3, 168 h, 50% reduction of VZV induced cytopathicity, 7 days post infection
Experimental: as §3

SMILES	EC50 (CMV strain AD169) [µM]	EC50 (CMV strain Davis) [µM]	MCC/μM [4] [µM]	CC50 [5] [µM]	toxicity (in words) [4]	anti-CMV activity (in words) (cytomegalo virus (CMV))	further results
O=c1nc2occc2cn1C1CC(O)C(CO)O1 (centres unmarked)							activity against HSV-1 (in words) (HSV-1): inactive; activity against HSV-2 (in words) (HSV-2): inactive; activity against VZV (in words) (VZV): inactive; activity against CMV (in words) (CMV [1]): inactive
CCCCCCCCCCc1cc2cn([C@H]3C[C@H](O)[C@@H](CO)O3)c(=O)nc2o1 [3-(2′-deoxy-β-D-ribofuranosyl)-6-decyl-2,3-dihydrofuro[2,3-d]pyrimidin-2-one]							anti-Varicella zoster virus (VZV) activity (in words) [2]: potent
O=c1nc2oc(CCCCCCCCCCl)cc2cn1C1CC(O)C(CO)O1 (centres unmarked) [6-(9-chlorononyl)-3-(4-hydroxy-5-(hydroxymethyl)tetrahydro-2-furanyl)-2,3-dihydrofuro[2,3,-d] pyrimidin-2-one]							anti-CMV activity (in words) (CMV [3]): demonstrate anti-CMV activity
CCCCCCCCCCc1cc2cn(C3CCC(CO)O3)c(=O)nc2o1 [Example 3, 3-[2′,3′-dideoxy-ribo-β-D-furanosyl]-6-decyl-2,3-dihydrofuro[2,3-d]pyrimidin-2-one]	2.6	3.2	>200	> 200	acceptable level of toxicity	at least comparable to that of the known drug Ganciclovir	pEC50 (VZV OKA strain): 4.40; pEC50 (VZV YS strain): 4.70; activity against CMV compared with VZV (in words) (cytomegalo virus (CMV); CMV versus VZV EC50): substantially more active against CMV, than against VZV
O=c1nc2oc(CCCCCCCCCOCCCCCl)cc2cn1C1CCC(CO)O1 [Example 9, 3-(2′-3′-Dideoxy-β-D-ribofuranosyl)-6-[9-(4-chlorobutoxy)nonyl]-2,3-dihydrofuro[2,3-d]pyrimidin-2-one]	2.6	1	20	> 200	toxicity greater than any of the compounds of Examples 1, 3, 4, 5 and 6	potent anti-CMV activity	

Second part, led by results:

EC50 (CMV strain AD169) [µM]	EC50 (CMV strain Davis) [µM]	SMILES	MCC/μM [4] [µM]	CC50 [5] [µM]	toxicity (in words) [4]	anti-CMV activity (in words) (cytomegalo virus (CMV))	further results
32	> 50	CCCCCCc1cc2cn(C3CCC(CO)O3)c(=O)nc2o1 [Example 1, 3-[2′,3′-dideoxy-ribo-β-D-furanosyl]-6-hexyl-2,3-dihydrofuro[2,3-d]pyrimidin-2-one]	200	143			
1.5	2.4	CCCCCCCCc1cc2cn(C3CCC(CO)O3)c(=O)nc2o1 [Example 2, 3-[2′3′-dideoxy-ribo-β-D-furanosyl]-6-octyl-2,3-dihydrofuro[2,3-d]pyrimidin-2-one]	20	112	toxicity greater than any of the compounds of Examples 1, 3, 4, 5 and 6	potent anti-CMV activity	
3.7	5	CCCCCCCCCCCCc1cc2cn(C3CCC(CO)O3)c(=O)nc2o1 [Example 4, 3-[2′,3′-dideoxy-ribo-β-D-furanosyl]-6-dodecyl-2,3-dihydrofuro[2,3-d]pyrimidin-2-one]	200	> 200	acceptable level of toxicity	at least comparable to that of the known drug Ganciclovir	
25	40	CCCCCCCCCCCCCCc1cc2cn(C3CCC(CO)O3)c(=O)nc2o1 [Example 5, 3-[2′,3′-dideoxy-ribo-β-D-furanosyl]-6-tetradecyl-2,3-dihydrofuro[2,3-d]pyrimidin-2-one]	200	> 200			
1.2	1.3	CCCCCCCCCc1cc2cn(C3CCC(CO)O3)c(=O)nc2o1 [Example 6, 3-[2′,3′-dideoxy-ribo-β-D-furanosyl]-6-nonyl-2,3-dihydrofuro[2,3-d]pyrimidin-2-one]	200	> 200	acceptable level of toxicity	potent anti-CMV activity; also recorded: at least comparable to that of the known drug Ganciclovir	
1.4	1.2	CCCCCCCCCCCc1cc2cn(C3CCC(CO)O3)c(=O)nc2o1 [Example 7, 3-[2′,3′-dideoxy-ribo-β-D-furanosyl]-6-undecyl-2,3-dihydrofuro[2,3-d]pyrimidin-2-one]	50	> 200	toxicity greater than any of the compounds of Examples 1, 3, 4, 5 and 6	potent anti-CMV activity	
1.2	1	CCCCOCCCCCCCCCc1cc2cn(C3CCC(CO)O3)c(=O)nc2o1 [Example 8, 3-(2′-3′-Dideoxy-β-D-ribofuranosyl)-6-[9-butyloxynonyl]-2,3-dihydrofuro[2,3-d]pyrimidin-2-one]	5	200	toxicity greater than any of the compounds of Examples 1, 3, 4, 5 and 6	potent anti-CMV activity	
2.6	3.4	Nc1nc(O)c2ncn(COC(CO)CO)c2n1 [Ganciclovir, reference compound]	>150				
